Experimental data reported in publication PMC6492070 (Frontiers in Pharmacology, 2019).
Where “and” joins values, the source holds several entries; their conditions need not be identical. Equal entries are not always repeated. Where two headings read alike, the source gives them in different places.

Legend:
CYP2A19 [1] = system: CYP2A19
CYP2A19 [2] = experiment: in vitro; conditions: both, hybrid sow × Piétrain boar, pig
CYP2C [3] = system: CYP2C
CYP2C [4] = experiment: in vitro; conditions: both, hybrid sow × Piétrain boar, pig
CYP2D [5] = experiment: in vitro; conditions: both, hybrid sow × Piétrain boar, pig
CYP2D [6] = system: CYP2D
CYP3A [7] = system: CYP3A
CYP3A [8] = experiment: in vitro; conditions: both, pig
in vivo = conditions: both, hybrid sow × Piétrain boars, pig; for k el: Ke
[9] = both, hybrid sow × Piétrain boars, pig, in vivo
CYP3A [10] = system: CYP3A; remark: listed apart in the source
CYP2C [11] = system: CYP2C; remark: listed apart in the source
[12] = pig, in vivo; cited from earlier work
CYP2D [13] = system: CYP2D; remark: listed apart in the source
IPEC-J2 cells = conditions: cited from earlier work
[14] = both, hybrid sow × Piétrain boar, pig

O=c1ccc2ccccc2o1 [CM, coumarin, reference compound]
Vmax (CYP2A19 [1]): 359 (4.1) pmol/mg protein/min
Km (CYP2A19 [2]): 0.91 µM

CCCCNC(=O)NS(=O)(=O)c1ccc(C)cc1 [TB, tolbutamide, reference compound]
Vmax (CYP2C [3]): 160 (16.0) pmol/mg protein/min and 132 (17.9) pmol/mg protein/min
Km (CYP2C [3]; [14]): 804 µM
Km (CYP2C [4]; Km): 1070 µM

COc1ccc2c(c1)[C@]13CCCC[C@@H]1[C@H](C2)N(C)CC3 [DXM, Dextromethorphan, reference compound]
Km (CYP2D [5]): 2 µM
Vmax (CYP2D [6]): 1971 (39.7) pmol/mg protein/min

C[C@H]1CCCC(=O)CCC/C=C/c2cc(O)cc(O)c2C(=O)O1 [ZEA, zearalenone]
Ki (CYP2D [5]): 55.4 µM
activity (CYP2D [5]): 32%
Inhibition type (CYP3A [7]): Partial mixed
α (CYP3A [7]): 3.8 (1.43)
β (CYP3A [7]): 0.26 (0.064)
mean OH-MDZ formation rate as % of [mycotoxine]=0 (CYP3A [7]; both, hybrid sow × Piétrain boar cross, pig): 26.7981
Residual activity (CYP3A [7]; both, hybrid sow × Piétrain boars, pig, microsomes): 27.0 (3.16) %
Ki (CYP3A [8]; hybrid sow × Piétrain boars, microsomes): 1.1 µM
activity (CYP3A [8]; hybrid sow × Piétrain boars, microsomes, Residual activity): < 30%
DEX formation rate as % of [mycotoxine]=0 (CYP2D [6]): 37.1724
Inhibition type (CYP2D [6]): Full non-competitive
Inhibition type (CYP2C [3]): Partial competitive
α (CYP2C [3]): 9.5 (1.05)
Residual activity (CYP2C [3]; [14]): 18.7 (0.35) %
Ki (CYP2C [4]): 0.54 µM
activity (CYP2C [4]; Residual activity): < 30%

Cc1ncc2n1-c1ccc(Cl)cc1C(c1ccccc1F)=NC2 [midazolam]
AUC(0-inf) (in vivo; iv, 0.036 mg/kg): 11.5 ng·h/mL
clearance (in vivo; iv, 0.036 mg/kg, Cl): 767 mL/min
k el (in vivo; iv, 0.036 mg/kg): 0.000231 s⁻¹
MRT (in vivo; iv, 0.036 mg/kg): 0.71 h
Vd (in vivo; iv, 0.036 mg/kg, Vd): 60.8 L
AUC(0-inf) (in vivo; iv): 18 ng·h/mL
k el (in vivo; po, 0.15 mg/kg): 0.000108 s⁻¹
MRT (in vivo; po, 0.15 mg/kg): 3.58 h
Tmax (in vivo; po, 0.15 mg/kg, Mean Tmax after removing the observation): 0.714 ± 0.559 h
Tmax (in vivo; po, 0.15 mg/kg, Tmax): 1.15 h
Tmax (in vivo; po, 0.15 mg/kg, Tmax of one pig): 4 h
Tmax (in vivo; po, 0.15 mg/kg, Tmax range): 0.67 to 2 h
Tmax (in vivo; po, 0.15 mg/kg, Tmax range of the other pigs): 0.16 to 1.5 h
Vmax (CYP3A [7]): 2155 (73.8) pmol/mg protein/min and 1899 (88.2) pmol/mg protein/min
Km (CYP3A [7]; [14]): 11.3 µM
Cl ([9]; iv, 0.036 mg/kg): 45.5 (22.75) L/h
AUC (0-inf) in the ZEA group, times higher on average ([9]; po): about 2.5 times
Average Ka of the T-2 group, times higher compared to the control group ([9]; po): about 2.5 times
Km (CYP3A [8]; hybrid sow × Piétrain boar, Km): 12.3 µM

CCCC[C@@H](C)[C@@H](OC(=O)C[C@@H](CC(=O)O)C(=O)O)[C@H](C[C@@H](C)C[C@H](O)CCCC[C@@H](O)C[C@H](O)[C@H](C)N)OC(=O)C[C@@H](CC(=O)O)C(=O)O [FB1, fumonisin B1]
Inhibition type (CYP2A19 [1]): Full mixed
Ki (CYP2A19 [1]): 2.3 µM
Residual activity (CYP2A19 [1]): 22.8 (3.50) %
α (CYP2A19 [1]): 14.0 (4.30)
Inhibition (efficacy) (CYP2A19 [1]; microsomes): 17%

CC(=O)OC[C@]12C[C@H](OC(=O)CC(C)C)C(C)=C[C@H]1O[C@@H]1[C@H](O)[C@@H](OC(C)=O)[C@@]2(C)[C@]12CO2 [T-2, T-2 toxin]
Formed metabolite PAR (CYP1A): 47.3 ng/mL and 46.6 ng/mL and 46.9 ng/mL
PAR formation rate (CYP1A): 625.827 pmol/min/mg protein and 616.565 pmol/min/mg protein and 620.535 pmol/min/mg protein
PAR formation rate, PRE (CYP1A): 523.948 pmol/min/mg protein and 490.871 pmol/min/mg protein and 492.194 pmol/min/mg protein
PAR, pre-incubation (ruwe data) (CYP1A): 39.6 and 37.1 and 37.2
Residual CYP enzyme activity, PH (CYP1A) (CYP1A): 78.2% and 96.7%
Formed metabolite OH-CM (CYP2A): 6.5 ng/mL and 7.1 ng/mL and 6.9 ng/mL
OH-CM formation rate (CYP2A): 80.1776 pmol/min/mg protein and 87.5786 pmol/min/mg protein and 85.1116 pmol/min/mg protein
OH-CM formation rate, PRE (CYP2A): 65.3756 pmol/min/mg protein and 55.5076 pmol/min/mg protein and 64.1421 pmol/min/mg protein
OH-CM, pre-incubation (ruwe data) (CYP2A): 5.3 and 4.5 and 5.2
Residual CYP enzyme activity, CM (CYP2A) (CYP2A): 72.5% and 99.1%
Inhibition type (CYP3A [7]): Full non-competitive
Ki (CYP3A [7]): 27 µM
Formed metabolite OH-MDZ (CYP3A [10]): 163 ng/mL and 160.8 ng/mL and 268.8 ng/mL
OH-MDZ formation rate (CYP3A [10]): 953.858 pmol/min/mg protein and 940.984 pmol/min/mg protein and 1572.99 pmol/min/mg protein
OH-MDZ formation rate, PRE (CYP3A [10]): 348.773 pmol/min/mg protein and 383.884 pmol/min/mg protein and 308.395 pmol/min/mg protein
OH-MDZ, pre-incubation (ruwe data) (CYP3A [10]): 59.6 and 65.6 and 52.7
Formed metabolite OH-TB (CYP2C [11]): 8.9 ng/mL and 12.9 ng/mL and 13.4 ng/mL
OH-TB formation rate (CYP2C [11]): 12.4325 pmol/min/mg protein and 18.0201 pmol/min/mg protein and 18.7185 pmol/min/mg protein
OH-TB formation rate, PRE (CYP2C [11]): 12.0134 pmol/min/mg protein and 12.2928 pmol/min/mg protein
OH-TB, pre-incubation (ruwe data) (CYP2C [11]): 8.6 and 8.8
Residual CYP enzyme activity, TB (CYP2C) (CYP2C [11]): 46.3% and 62.3%
Mean elimination half-life [12]: 0.23 h
Parent toxin in plasma and liver [12]: no parent toxin could be detected
Inhibition type (CYP2C [3]): Full competitive
Ki (CYP2C [3]): 14.8 µM
Residual activity (CYP2C [3]): 24.0 (1.38) %
DEX formation rate (CYP2D [13]): 838.482 pmol/min/mg protein and 812.838 pmol/min/mg protein and 850.138 pmol/min/mg protein
DEX formation rate, PRE (CYP2D [13]): 660.528 pmol/min/mg protein and 864.903 pmol/min/mg protein and 852.469 pmol/min/mg protein
DEX, pre-incubation (ruwe data) (CYP2D [13]): 85 and 111.3 and 109.7
Formed metabolite DEX (CYP2D [13]): 107.9 ng/mL and 104.6 ng/mL and 109.4 ng/mL
Residual CYP enzyme activity, DXM (CYP2D) (CYP2D [13]): 94.2% and 99.1%
Formed metabolite OH-CZ (CYP2E): 25.3 ng/mL and 26.9 ng/mL
OH-CZ formation rate (CYP2E): 272.688 pmol/min/mg protein and 289.933 pmol/min/mg protein
OH-CZ formation rate, PRE (CYP2E): 237.12 pmol/min/mg protein and 232.809 pmol/min/mg protein and 217.719 pmol/min/mg protein
OH-CZ, pre-incubation (ruwe data) (CYP2E): 22 and 21.6 and 20.2
Residual CYP enzyme activity, CZ (CYP2E) (CYP2E): 65.4% and 79.5%
Concentration significantly affecting epithelial integrity (IPEC-J2 cells): 10 ng/mL and 21.43 nM
